The values that follow come from patent US10559456B2, “Systems and methods for analyzing an extracted sample using an immiscible extraction solvent” (priority 2014, dated 2020).

For data set [1] the following is noted: Log P=log([solute]octanol/[solute]water), un-ionized compound; cited from earlier work.
The subject of the next data set is cholinesterase (ChE). The conditions noted are these: human whole blood diluted 10 times, acetylthiocholine 1.8 mg/mL, 5 min incubation in capillary, room temperature.

Values joined by “and” are separate entries in the source; they are usually repeats but may differ in a detail not shown here. Identical values can stand only once.

Description for cholinesterase (ChE): For testing of a particular solvent, 5 μL blood sample (diluted) was injected into the capillary with the extraction solvent plug immediately after the mixing the acetylthiocholine into the blood. After the 5 min incubation in capillary, the TCh/ATch ratio was measured using SFME nanoESI MS. For the control, 5 min after the mixing acetylthiocholine into the diluted blood, the sample was taken and analyzed immediately using SFME nanoESI MS with ethyl acetate as the extraction phase. Spray voltage of 1.5 kV was used for nanoESI.
SFME-nanoESI was applied for monitoring the enzymatic activity of cholinesterase (ChE) in whole blood samples. […] The blood sample was diluted 10 times to slow down the reaction rate as well as to facilitate the slug flows for SFME. The substrate acetylthiocholine iodine was added into the diluted blood sample at a concentration of 1.8 mg/mL, and then 5 μL sample was taken immediately and injected into the capillary with 5 μL extraction phase. The capillary with the sample and the extraction solvent was left in room temperature 25° C. for incubation. The SFME-nanoESI could be performed repeatedly on the same sample and the ratio of the substrate ATCh and the reaction product TCh could be monitored as a function of time to characterize the enzymatic activity of the ChE. […]

Consider `CN[C@@H](C)Cc1ccccc1` [methamphetamine], for which the “Partition coefficient Log P” value in data set [1] is 2.1.

Take `CN1[C@H]2CC[C@@H]1[C@@H](C(=O)O)[C@@H](OC(=O)c1ccccc1)C2` [benzoylecgonine]: the “Partition coefficient Log P” value in data set [1] is −0.6 and −0.59.

As to `N[C@@H](Cc1ccccc1)C(=O)O` [phenylalanine], the “Partition coefficient Log P” value in data set [1] is given as −1.38.

On to `CCOC(C)=O` [ethyl acetate], for which the “reduction of ChE activity due to contact with extraction solvent” value in the data set with cholinesterase (ChE) is “minimal”.

With `ClC(Cl)Cl` [chloroform], the “reduction of ChE activity due to contact with extraction solvent” value with cholinesterase (ChE) is reported as “more than 60%”.
